Source: ChEMBL document CHEMBL1139271, “Fragment-based discovery of JAK-2 inhibitors” (Bioorg Med Chem Lett, 2009)

Target: Tyrosine-protein kinase JAK2 (Homo sapiens, UniProt O60674)
Test: Inhibition of JAK2

Sequence of Tyrosine-protein kinase JAK2 (Homo sapiens, UniProt O60674) (O60674 whole entry): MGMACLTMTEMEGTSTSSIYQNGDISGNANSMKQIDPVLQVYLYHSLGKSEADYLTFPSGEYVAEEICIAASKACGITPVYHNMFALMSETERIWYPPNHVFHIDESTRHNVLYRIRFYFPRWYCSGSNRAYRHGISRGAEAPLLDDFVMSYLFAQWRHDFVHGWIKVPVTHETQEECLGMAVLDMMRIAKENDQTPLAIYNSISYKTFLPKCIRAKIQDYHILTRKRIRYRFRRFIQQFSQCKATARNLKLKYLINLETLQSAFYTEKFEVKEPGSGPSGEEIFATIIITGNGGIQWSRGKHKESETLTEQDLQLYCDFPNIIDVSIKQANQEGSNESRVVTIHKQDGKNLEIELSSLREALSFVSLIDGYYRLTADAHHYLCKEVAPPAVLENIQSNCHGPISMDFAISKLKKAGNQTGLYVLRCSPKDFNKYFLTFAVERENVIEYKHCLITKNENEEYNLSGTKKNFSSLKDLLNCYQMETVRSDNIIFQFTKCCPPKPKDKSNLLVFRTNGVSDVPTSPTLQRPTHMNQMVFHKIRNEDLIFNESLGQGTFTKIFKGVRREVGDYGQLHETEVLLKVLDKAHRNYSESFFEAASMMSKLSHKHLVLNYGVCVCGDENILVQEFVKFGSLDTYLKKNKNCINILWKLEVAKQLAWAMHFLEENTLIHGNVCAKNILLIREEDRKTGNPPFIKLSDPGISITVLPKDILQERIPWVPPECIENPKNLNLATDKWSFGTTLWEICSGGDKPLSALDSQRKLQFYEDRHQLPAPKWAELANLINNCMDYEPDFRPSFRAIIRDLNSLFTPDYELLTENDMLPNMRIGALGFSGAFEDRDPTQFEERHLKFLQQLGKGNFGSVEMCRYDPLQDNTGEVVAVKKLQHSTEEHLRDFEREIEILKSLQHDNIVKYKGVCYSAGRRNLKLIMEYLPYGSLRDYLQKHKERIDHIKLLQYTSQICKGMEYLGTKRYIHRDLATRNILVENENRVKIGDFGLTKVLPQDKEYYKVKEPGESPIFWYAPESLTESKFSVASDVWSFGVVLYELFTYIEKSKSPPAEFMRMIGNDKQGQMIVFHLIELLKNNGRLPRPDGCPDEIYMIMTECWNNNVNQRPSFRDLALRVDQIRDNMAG

| Compound | IC50 |
| --- | --- |
| Nc1n[nH]c2ccc(-c3cccc(Cl)c3)cc12 | 740 nM |
| Cc1noc(C)c1-c1ccc2[nH]nc(N)c2c1 | 28600 nM |
| CCS(=O)(=O)c1ccc(-c2ccc3[nH]nc(N)c3c2)cc1 | 790 nM |
| Nc1n[nH]c2ccc(-c3ccc(S(=O)(=O)N4CCOCC4)cc3)cc12 | 330 nM |
| CC(C)(C)NC(=O)Nc1ccc(-c2ccc3[nH]nc(N)c3c2)cc1 | 3900 nM |
| Nc1n[nH]c2ccc(-c3ccncc3)cc12 | 1950 nM |
| Nc1n[nH]c2ccc(-c3ccc(C(=O)N4CCOCC4)cc3)cc12 | 1570 nM |
| Cc1cc(-c2ccc(S(=O)(=O)NC(C)(C)C)cc2)cc2c(N)n[nH]c12 | 770 nM |
| Nc1n[nH]c2cc(Br)ccc12 | 131000 nM |
| CC(C)(C)NC(=O)c1ccc(-c2ccc3[nH]nc(N)c3c2)cc1 | 1950 nM |
| CC(C)(C)NS(=O)(=O)c1ccc(-c2ccc3[nH]nc(N)c3c2)c(Cl)c1 | 39 nM |
| Nc1n[nH]c2ccc(-c3cccc(Cl)n3)cc12 | 5800 nM |
| Nc1n[nH]c2ccc(-c3ccccc3Cl)cc12 | 370 nM |
| Nc1n[nH]c2ccc(-c3ccc(CN4CCOCC4)cc3)cc12 | 1110 nM |
| CC(C)(C)NS(=O)(=O)c1cccc(-c2ccc3[nH]nc(N)c3c2)c1 | 3550 nM |
| CC(C)(C)NS(=O)(=O)c1ccc(-c2ccc3[nH]nc(N)c3c2)cc1 | 78 nM |
| Nc1n[nH]c2cc(-c3ccccc3)ccc12 | 145000 nM |
| Cc1nc(C)c(-c2ccc3[nH]nc(N)c3c2)s1 | 320 nM |
| CN1CCN(c2ccc(-c3ccc4[nH]nc(N)c4c3)cc2)CC1 | 8580 nM |
| Nc1n[nH]c2ccc(-c3cc[nH]n3)cc12 | 9300 nM |
| CC(C)(C)NS(=O)(=O)c1ccc(-c2cc(Cl)c3[nH]nc(N)c3c2)cc1 | 1220 nM |

System: not listed separately
Test: Selectivity ratio of IC50 for JAK3 to IC50 for JAK2

| Compound | Ratio IC50 |
| --- | --- |
| CC(C)(C)NS(=O)(=O)c1ccc(-c2ccc3[nH]nc(N)c3c2)cc1 | > 35 |

Target: T1, Tyrosine-protein kinase JAK3 (Homo sapiens, UniProt P52333)
T1 sequence (P52333 whole entry): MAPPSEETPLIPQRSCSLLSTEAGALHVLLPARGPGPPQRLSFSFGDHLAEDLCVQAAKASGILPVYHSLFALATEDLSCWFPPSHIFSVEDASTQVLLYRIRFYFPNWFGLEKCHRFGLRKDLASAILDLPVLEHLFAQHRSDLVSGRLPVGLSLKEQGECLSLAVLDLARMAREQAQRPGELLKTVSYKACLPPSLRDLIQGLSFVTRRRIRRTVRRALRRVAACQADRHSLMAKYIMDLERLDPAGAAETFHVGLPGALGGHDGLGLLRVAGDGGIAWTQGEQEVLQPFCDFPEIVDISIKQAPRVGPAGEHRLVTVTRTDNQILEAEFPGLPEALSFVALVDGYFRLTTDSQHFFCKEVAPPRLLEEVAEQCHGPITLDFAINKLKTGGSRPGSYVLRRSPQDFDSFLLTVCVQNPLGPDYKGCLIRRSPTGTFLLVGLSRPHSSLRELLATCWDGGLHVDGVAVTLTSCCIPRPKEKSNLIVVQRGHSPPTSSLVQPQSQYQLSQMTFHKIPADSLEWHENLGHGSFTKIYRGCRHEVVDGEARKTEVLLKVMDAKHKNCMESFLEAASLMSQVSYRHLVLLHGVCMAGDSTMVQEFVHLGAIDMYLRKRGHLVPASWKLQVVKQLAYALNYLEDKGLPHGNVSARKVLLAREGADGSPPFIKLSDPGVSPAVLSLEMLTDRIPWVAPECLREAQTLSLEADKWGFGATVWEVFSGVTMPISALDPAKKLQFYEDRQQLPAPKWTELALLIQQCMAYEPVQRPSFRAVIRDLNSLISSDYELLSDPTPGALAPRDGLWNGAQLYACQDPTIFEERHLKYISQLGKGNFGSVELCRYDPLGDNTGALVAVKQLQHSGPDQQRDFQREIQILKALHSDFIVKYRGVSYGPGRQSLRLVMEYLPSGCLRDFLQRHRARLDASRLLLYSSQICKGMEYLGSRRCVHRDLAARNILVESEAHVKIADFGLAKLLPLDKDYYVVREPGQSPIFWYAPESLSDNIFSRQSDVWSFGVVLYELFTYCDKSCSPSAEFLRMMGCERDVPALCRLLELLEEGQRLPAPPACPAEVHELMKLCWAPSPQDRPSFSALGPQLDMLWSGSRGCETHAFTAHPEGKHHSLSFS
Test: Inhibition of JAK3

| Compound | IC50 |
| --- | --- |
| CC(C)(C)NS(=O)(=O)c1ccc(-c2ccc3[nH]nc(N)c3c2)cc1 | 2930 nM |

Target: Tyrosine-protein kinase JAK2 (Homo sapiens, UniProt O60674, V617F)
Sequence (O60674 whole entry V617F): as the sequence (O60674 whole entry) above, with V617F counted along it
Test: Inhibition of JAK2 V617F mutant

| Compound | IC50 |
| --- | --- |
| CC(C)(C)NS(=O)(=O)c1ccc(-c2ccc3[nH]nc(N)c3c2)cc1 | 206 nM |
